Results from patent publication US20160280631A1, “ESTER COMPOUNDS INCLUDING TRIESTERS HAVING TERMINAL VICINAL ACYL GROUPS” (BIOSYNTHETIC TECHNOLOGIES, LLC., priority 2015, published 2016).

Experiment: kinematic viscosity (ASTM Method D445-97)
Type: physicochemical
Details: measured at 100° C.
Protocol: Except as otherwise described, pour point is measured by ASTM Method D97-96a, cloud point is measured by ASTM Method D2500, viscosity/kinematic viscosity is measured by ASTM Method D445-97, viscosity index is measured by ASTM Method D2270-93 (Reapproved 1998), specific gravity is measured by ASTM Method D4052, flash point is measured by ASTM Method D92, evaporative loss is measured by ASTM Method D5800, vapor pressure is measured by ASTM Method D5191, and acute aqueous toxicity is measured by Organization of Economic Cooperation and Development (OECD) 203.

| kinematic viscosity | Structure (SMILES) |
| --- | --- |
| less than 10 cSt | CCCCC(CC)COC(=O)CCCCCCCCC(COC(=O)C(C)C)OC(=O)C(C)C (centres unmarked) [Example 5] |
| less than 10 cSt | CCCCC(CC)COC(=O)CCCCCCCCC(COC(C)=O)OC(C)=O (centres unmarked) [Example 4] |
